Data as given in ChEMBL document CHEMBL3045738, “Control of Greenhouse Whitefly (Trialeurodes vaporariorum) Using Visually Attractive Targets Impregnated with Pyriproxyfen” (J Pestic Sci, 2005).
Activity calls are given as the source filed them. The rule behind the calls is not given here.

Tests used:
[1] = test system: Trialeurodes vaporariorum; experiment: Insecticidal activity against Trialeurodes vaporariorum in ten-leaf stage of bean plant after 10 to 35 days; type: functional, organism-based
[2] = test system: Trialeurodes vaporariorum; experiment: Insecticidal activity against Trialeurodes vaporariorum in bean plant leaf up to 50 days by glasshouse method; type: functional, organism-based

In the case of `CC(COc1ccc(Oc2ccccc2)cc1)Oc1ccccn1` (racemic), the Activity [1] is reported as “Active” and the Activity [2] is reported as “Active”.
